From ChEMBL document CHEMBL1201862, “PubChem BioAssay data set” (2004)
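Protocol summary: plate cells (96-well), add compound at 5 concentrations, incubate 48 h, interpolate endpoints linearly. GI50 = concentration required for 50% inhibition of growth.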 Calls of active or inactive are those of the source. Rule as the data show it: active = GI50 up to about 1.1 µM and inactive = higher.

What was measured:
Test in all cases: growth of human tumour cells (NCI), 48 h
K562 = test system: K562
ACHN = test system: ACHN
NCI-H522 = test system: NCI-H522
HT-29 = test system: HT-29
SR = test system: SR
NCI-H226 = test system: NCI-H226
HCC 2998 = test system: HCC 2998
M14 = test system: M14
NCI-H23 = test system: NCI-H23
MCF7 = test system: MCF7
OVCAR-4 = test system: OVCAR-4
UACC-257 = test system: UACC-257
NCI-H460 = test system: NCI-H460
PC-3 = test system: PC-3
A549 = test system: A549
786-0 = test system: 786-0
CCRF-CEM = test system: CCRF-CEM
DU-145 = test system: DU-145
T47D = test system: T47D
SK-MEL-2 = test system: SK-MEL-2

Measured: GI50

Cc1ccn2c(=O)cc(-c3ccccc3)nc2c1
inactive: K562 > 100 µM | ACHN 71.1 µM | NCI-H522 55.2 µM | HT-29 > 100 µM | SR > 100 µM | NCI-H226 > 100 µM | HCC 2998 > 100 µM | M14 > 100 µM | NCI-H23 > 100 µM | MCF7 > 100 µM | OVCAR-4 > 100 µM | UACC-257 > 100 µM | NCI-H460 > 100 µM | PC-3 > 100 µM | A549 > 100 µM | 786-0 > 100 µM | CCRF-CEM > 100 µM | DU-145 > 100 µM | T47D 49.7 µM

N#Cc1c(N)nc(Nc2cccc3ccccc23)c(C#N)c1C#N
inactive: K562 2.58 µM | ACHN 4.78 µM | NCI-H522 2.9 µM | HT-29 6.11 µM | SR 3 µM | NCI-H226 > 10 µM | SK-MEL-2 > 10 µM | HCC 2998 8.43 µM | M14 6.61 µM | NCI-H23 3.61 µM | MCF7 2.79 µM | OVCAR-4 > 10 µM | NCI-H460 2.97 µM | PC-3 4.27 µM | A549 5.71 µM | CCRF-CEM 2.32 µM | DU-145 > 10 µM | T47D 8.09 µM

O=S(=O)(N=S(c1ccccc1)c1ccccc1)c1ccccc1
inactive: K562 > 100 µM | ACHN > 100 µM | HT-29 > 100 µM | SR > 100 µM | NCI-H226 > 100 µM | M14 > 100 µM | NCI-H23 > 100 µM | MCF7 > 100 µM | UACC-257 > 100 µM | NCI-H460 > 100 µM | PC-3 > 100 µM | A549 > 100 µM | 786-0 > 100 µM | CCRF-CEM > 100 µM | DU-145 > 100 µM | T47D > 100 µM

N#CCCN(CCC#N)c1ccc(C(=N/c2ccc(Cl)cc2)/N=N/c2ccc(Cl)cc2)cc1
inactive: K562 32.5 µM | ACHN 18.2 µM | NCI-H522 17 µM | HT-29 19.8 µM | SR 18.9 µM | NCI-H226 17.3 µM | SK-MEL-2 9.23 µM | HCC 2998 12.8 µM | M14 21.5 µM | NCI-H23 17.5 µM | MCF7 10.1 µM | OVCAR-4 17.9 µM | UACC-257 15 µM | NCI-H460 13.4 µM | PC-3 15.6 µM | A549 16.9 µM | 786-0 18.3 µM | CCRF-CEM 35.2 µM | DU-145 15.5 µM | T47D 7.6 µM

NC(CCCCO)C(=O)O (stereo not drawn)
inactive: K562 > 100 µM | ACHN > 100 µM | NCI-H522 > 100 µM | HT-29 > 100 µM | SR > 100 µM | NCI-H226 > 100 µM | SK-MEL-2 > 100 µM | HCC 2998 > 100 µM | M14 > 100 µM | NCI-H23 > 100 µM | MCF7 > 100 µM | OVCAR-4 > 100 µM | UACC-257 > 100 µM | NCI-H460 > 100 µM | PC-3 > 100 µM | A549 > 100 µM | CCRF-CEM > 100 µM | DU-145 > 100 µM | T47D > 100 µM

O=C1CCC2=C(CCC2)N1CCc1ccc2c(c1)OCO2
inactive: K562 25.7 µM | ACHN 77.3 µM | NCI-H522 61.1 µM | HT-29 92 µM | SR 30.9 µM | NCI-H226 20.5 µM | SK-MEL-2 29.9 µM | HCC 2998 > 100 µM | M14 92.9 µM | NCI-H23 38 µM | MCF7 60 µM | OVCAR-4 > 100 µM | UACC-257 84.9 µM | NCI-H460 48.2 µM | PC-3 32.5 µM | A549 62.1 µM | 786-0 > 100 µM | CCRF-CEM 29.2 µM | DU-145 > 100 µM | T47D 37 µM

O=C(O)c1ccccc1CN1CCCC(C(=O)O)C1 (stereo not drawn)
inactive: K562 > 100 µM | ACHN > 100 µM | NCI-H522 > 100 µM | HT-29 > 100 µM | SR > 100 µM | NCI-H226 > 100 µM | SK-MEL-2 > 100 µM | M14 > 100 µM | NCI-H23 > 100 µM | MCF7 > 100 µM | OVCAR-4 > 100 µM | UACC-257 > 100 µM | NCI-H460 > 100 µM | PC-3 > 100 µM | A549 > 100 µM | 786-0 > 100 µM | DU-145 > 100 µM | T47D > 100 µM

Cc1ccc(-c2n[nH]c(=O)n2/N=C\c2ccccc2)cc1
inactive: K562 > 76.2 µM | ACHN 50.6 µM | NCI-H522 33.8 µM | HT-29 > 91 µM | SR > 72.6 µM | NCI-H226 71.4 µM | SK-MEL-2 33.8 µM | HCC 2998 > 87.3 µM | M14 > 93.1 µM | NCI-H23 68.9 µM | MCF7 56.2 µM | OVCAR-4 61.5 µM | UACC-257 > 100 µM | NCI-H460 33.6 µM | PC-3 > 63.2 µM | A549 > 88.5 µM | 786-0 60.3 µM | CCRF-CEM > 80.9 µM | DU-145 > 94.2 µM | T47D 36.6 µM

CC(=O)C1=C(C)NC(=C(C#N)C#N)C(C#N)=C1
inactive: K562 > 100 µM | ACHN > 100 µM | NCI-H522 > 100 µM | HT-29 > 100 µM | SR > 100 µM | NCI-H226 > 100 µM | SK-MEL-2 > 100 µM | HCC 2998 > 100 µM | M14 > 100 µM | NCI-H23 > 100 µM | MCF7 > 100 µM | OVCAR-4 3.81 µM | NCI-H460 > 100 µM | PC-3 > 100 µM | A549 > 100 µM | 786-0 > 100 µM | CCRF-CEM > 100 µM | DU-145 > 100 µM | T47D > 100 µM

CCCCNC(=S)Nc1nc(C(=O)NNC(=S)NC2CCCCC2)cs1
inactive: K562 75.5 µM | ACHN 62.7 µM | NCI-H522 > 100 µM | HT-29 > 100 µM | SR 8.07 µM | NCI-H226 > 100 µM | SK-MEL-2 > 100 µM | HCC 2998 > 100 µM | M14 > 100 µM | NCI-H23 > 100 µM | MCF7 > 100 µM | OVCAR-4 > 100 µM | UACC-257 > 100 µM | PC-3 > 100 µM | A549 > 100 µM | 786-0 > 100 µM | CCRF-CEM 67.6 µM | DU-145 > 100 µM | T47D > 100 µM
